Test results taken from PubChem BioAssay (NCI).
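Five concentrations, 48 hours, 96-well plates. TGI marks complete inhibition of growth.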

Tests used:
Experiment in all cases: inhibition of tumour cell growth, NCI panel, 48 h
786-0 renal = system: 786-0 renal
A498 renal = system: A498 renal
A549 NSCLC = system: A549 NSCLC
ACHN renal = system: ACHN renal
BT-549 breast = system: BT-549 breast
CAKI-1 renal = system: CAKI-1 renal
CCRF-CEM leukemia = system: CCRF-CEM leukemia
COLO 205 colon = system: COLO 205 colon
DU-145 prostate = system: DU-145 prostate
EKVX NSCLC = system: EKVX NSCLC
HCC-2998 colon = system: HCC-2998 colon
HCT-116 colon = system: HCT-116 colon
HCT-15 colon = system: HCT-15 colon
HL-60(TB) leukemia = system: HL-60(TB) leukemia
HOP-62 NSCLC = system: HOP-62 NSCLC
HOP-92 NSCLC = system: HOP-92 NSCLC
HS 578T breast = system: HS 578T breast
HT29 colon = system: HT29 colon
IGROV1 ovarian = system: IGROV1 ovarian
K-562 leukemia = system: K-562 leukemia
KM12 colon = system: KM12 colon
LOX IMVI melanoma = system: LOX IMVI melanoma
M14 melanoma = system: M14 melanoma
MALME-3M melanoma = system: MALME-3M melanoma
MCF7 breast = system: MCF7 breast
MDA-MB-231 breast = system: MDA-MB-231 breast
MDA-MB-435 = system: MDA-MB-435
MDA-N = system: MDA-N
MOLT-4 leukemia = system: MOLT-4 leukemia
NCI-H226 lung = system: NCI-H226 lung
NCI-H23 lung = system: NCI-H23 lung
NCI-H460 lung = system: NCI-H460 lung
NCI-H522 lung = system: NCI-H522 lung
NCI/ADR-RES ovarian = system: NCI/ADR-RES ovarian
OVCAR-3 ovarian = system: OVCAR-3 ovarian
OVCAR-4 ovarian = system: OVCAR-4 ovarian
OVCAR-5 ovarian = system: OVCAR-5 ovarian
OVCAR-8 ovarian = system: OVCAR-8 ovarian
PC-3 prostate = system: PC-3 prostate
RPMI-8226 leukemia = system: RPMI-8226 leukemia
RXF 393 renal = system: RXF 393 renal
SF-268 CNS = system: SF-268 CNS
SF-295 CNS = system: SF-295 CNS
SF-539 CNS = system: SF-539 CNS
SK-MEL-2 melanoma = system: SK-MEL-2 melanoma
SK-MEL-28 melanoma = system: SK-MEL-28 melanoma
SK-MEL-5 melanoma = system: SK-MEL-5 melanoma
SK-OV-3 ovarian = system: SK-OV-3 ovarian
SN12C renal = system: SN12C renal
SNB-19 CNS = system: SNB-19 CNS
SNB-75 CNS = system: SNB-75 CNS
SR leukemia = system: SR leukemia
SW-620 colon = system: SW-620 colon
T-47D breast = system: T-47D breast
TK-10 renal = system: TK-10 renal
U251 CNS = system: U251 CNS
UACC-257 melanoma = system: UACC-257 melanoma
UACC-62 melanoma = system: UACC-62 melanoma
UO-31 renal = system: UO-31 renal

CN(C)CCCNc1c2c(nc3ccc(Cl)cc13)CCCC2
TGI (786-0 renal): 23.1 µM | TGI (A498 renal): 32.6 µM | TGI (A549 NSCLC): 39.6 µM | TGI (ACHN renal): 45.5 µM | TGI (BT-549 breast): 43.7 µM | TGI (CAKI-1 renal): 65.4 µM | TGI (CCRF-CEM leukemia): 43.7 µM | TGI (COLO 205 colon): 21.5 µM | TGI (DU-145 prostate): 31.9 µM | TGI (EKVX NSCLC): 38.3 µM | TGI (HCC-2998 colon): 16.3 µM | TGI (HCT-116 colon): 21.5 µM | TGI (HCT-15 colon): 32.4 µM | TGI (HL-60(TB) leukemia): 40.1 µM | TGI (HOP-62 NSCLC): 30.5 µM | TGI (HOP-92 NSCLC): 27.8 µM | TGI (HS 578T breast): 40.6 µM | TGI (HT29 colon): 23.2 µM | TGI (IGROV1 ovarian): 37.5 µM | TGI (K-562 leukemia): 12 µM | TGI (KM12 colon): 30.8 µM | TGI (LOX IMVI melanoma): 27.3 µM | TGI (M14 melanoma): 28.1 µM | TGI (MALME-3M melanoma): 29.7 µM | TGI (MCF7 breast): 25.5 µM | TGI (MDA-MB-231 breast): 31.2 µM | TGI (MDA-MB-435): 32.3 µM | TGI (MDA-N): 26.9 µM | TGI (MOLT-4 leukemia): 20.8 µM | TGI (NCI-H226 lung): 49.7 µM | TGI (NCI-H23 lung): 30.6 µM | TGI (NCI-H460 lung): 23.9 µM | TGI (NCI-H522 lung): 26.8 µM | TGI (NCI/ADR-RES ovarian): 45 µM | TGI (OVCAR-3 ovarian): 34.9 µM | TGI (OVCAR-4 ovarian): 43.8 µM | TGI (OVCAR-5 ovarian): 49 µM | TGI (OVCAR-8 ovarian): 32.9 µM | TGI (PC-3 prostate): 32.8 µM | TGI (RPMI-8226 leukemia): 28.7 µM | TGI (RXF 393 renal): 28.6 µM | TGI (SF-268 CNS): 28.6 µM | TGI (SF-295 CNS): 29.7 µM | TGI (SF-539 CNS): 28.5 µM | TGI (SK-MEL-2 melanoma): 34.5 µM | TGI (SK-MEL-28 melanoma): 35.3 µM | TGI (SK-MEL-5 melanoma): 27.8 µM | TGI (SK-OV-3 ovarian): 66.2 µM | TGI (SN12C renal): 28.9 µM | TGI (SNB-19 CNS): 49.4 µM | TGI (SNB-75 CNS): 30.8 µM | TGI (SR leukemia): 6.88 µM | TGI (SW-620 colon): 31.8 µM | TGI (T-47D breast): > 73 µM | TGI (TK-10 renal): 36.4 µM | TGI (U251 CNS): 30.1 µM | TGI (UACC-257 melanoma): 30.7 µM | TGI (UACC-62 melanoma): 32.1 µM | TGI (UO-31 renal): 28 µM

N#Cc1c(O)c(C=Nc2ccc(Cl)cc2)c(=O)n2c1[nH]c1ccccc12
TGI (786-0 renal): > 100 µM | TGI (A498 renal): > 100 µM | TGI (A549 NSCLC): > 100 µM | TGI (ACHN renal): > 100 µM | TGI (BT-549 breast): > 100 µM | TGI (CAKI-1 renal): > 100 µM | TGI (CCRF-CEM leukemia): > 100 µM | TGI (COLO 205 colon): > 100 µM | TGI (DU-145 prostate): > 100 µM | TGI (EKVX NSCLC): > 100 µM | TGI (HCC-2998 colon): > 100 µM | TGI (HCT-116 colon): > 100 µM | TGI (HCT-15 colon): > 100 µM | TGI (HL-60(TB) leukemia): > 100 µM | TGI (HOP-62 NSCLC): > 100 µM | TGI (HOP-92 NSCLC): > 100 µM | TGI (HS 578T breast): > 100 µM | TGI (HT29 colon): > 100 µM | TGI (IGROV1 ovarian): > 100 µM | TGI (K-562 leukemia): > 100 µM | TGI (KM12 colon): > 100 µM | TGI (LOX IMVI melanoma): > 100 µM | TGI (M14 melanoma): > 100 µM | TGI (MALME-3M melanoma): > 100 µM | TGI (MCF7 breast): > 100 µM | TGI (MDA-MB-231 breast): > 100 µM | TGI (MDA-MB-435): > 100 µM | TGI (MDA-N): > 100 µM | TGI (MOLT-4 leukemia): > 100 µM | TGI (NCI-H226 lung): > 100 µM | TGI (NCI-H23 lung): > 100 µM | TGI (NCI-H460 lung): > 100 µM | TGI (NCI-H522 lung): > 100 µM | TGI (NCI/ADR-RES ovarian): > 100 µM | TGI (OVCAR-3 ovarian): > 100 µM | TGI (OVCAR-4 ovarian): > 100 µM | TGI (OVCAR-5 ovarian): > 100 µM | TGI (OVCAR-8 ovarian): > 100 µM | TGI (PC-3 prostate): > 100 µM | TGI (RPMI-8226 leukemia): > 100 µM | TGI (RXF 393 renal): > 100 µM | TGI (SF-268 CNS): > 100 µM | TGI (SF-295 CNS): > 100 µM | TGI (SF-539 CNS): > 100 µM | TGI (SK-MEL-2 melanoma): > 100 µM | TGI (SK-MEL-28 melanoma): > 100 µM | TGI (SK-MEL-5 melanoma): > 100 µM | TGI (SK-OV-3 ovarian): > 100 µM | TGI (SN12C renal): > 100 µM | TGI (SNB-19 CNS): > 100 µM | TGI (SNB-75 CNS): > 100 µM | TGI (SR leukemia): > 100 µM | TGI (SW-620 colon): > 100 µM | TGI (T-47D breast): > 100 µM | TGI (TK-10 renal): > 100 µM | TGI (U251 CNS): > 100 µM | TGI (UACC-257 melanoma): > 100 µM | TGI (UACC-62 melanoma): > 100 µM | TGI (UO-31 renal): > 100 µM
